Results from ChEMBL document CHEMBL1201862, “PubChem BioAssay data set” (2004).
The source made the active and inactive calls.

Assays:
Beta Lactamase = Beta Lactamase (Pseudomonas aeruginosa, UniProt Q932Y6); assay: beta-lactamase reporter inhibitor potency, dose response, artefact control for NOD2-RIPK2 interaction inhibitor project, BLA reporter cells, FRET fluorescence (AID 651552); assay type: functional, cell-based
[1] = Fluorescence-based cell-based high throughput dose response assay for inhibitors of the interaction of nucleotide-binding oligomerization domain containing 2 (NOD2) and the receptor-interacting serine-threonine kinase 2 (RIPK2).; assay type: functional; conditions: Homo sapiens
[2] = molecular target: G-protein coupled receptor 183 (Homo sapiens, UniProt P32249); assay: SAR confirmation of small molecule antagonists of the EBI2 receptor via a luminescent beta-arrestin assa.; assay type: functional
Chain of G-protein coupled receptor 183 (P32249 whole entry): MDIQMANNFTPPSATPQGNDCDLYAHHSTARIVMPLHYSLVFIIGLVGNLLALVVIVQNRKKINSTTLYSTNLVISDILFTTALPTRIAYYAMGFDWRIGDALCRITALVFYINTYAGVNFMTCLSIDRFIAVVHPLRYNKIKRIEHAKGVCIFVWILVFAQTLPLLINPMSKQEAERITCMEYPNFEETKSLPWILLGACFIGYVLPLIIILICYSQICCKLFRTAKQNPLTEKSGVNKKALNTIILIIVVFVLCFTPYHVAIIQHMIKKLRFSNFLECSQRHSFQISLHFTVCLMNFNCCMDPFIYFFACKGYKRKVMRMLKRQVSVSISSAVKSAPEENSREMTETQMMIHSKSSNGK

[3] = molecular target: T1, Oxysterols receptor LXR-beta (Homo sapiens, UniProt P55055); assay type: functional, cell-based
T1 sequence (P55055 whole entry): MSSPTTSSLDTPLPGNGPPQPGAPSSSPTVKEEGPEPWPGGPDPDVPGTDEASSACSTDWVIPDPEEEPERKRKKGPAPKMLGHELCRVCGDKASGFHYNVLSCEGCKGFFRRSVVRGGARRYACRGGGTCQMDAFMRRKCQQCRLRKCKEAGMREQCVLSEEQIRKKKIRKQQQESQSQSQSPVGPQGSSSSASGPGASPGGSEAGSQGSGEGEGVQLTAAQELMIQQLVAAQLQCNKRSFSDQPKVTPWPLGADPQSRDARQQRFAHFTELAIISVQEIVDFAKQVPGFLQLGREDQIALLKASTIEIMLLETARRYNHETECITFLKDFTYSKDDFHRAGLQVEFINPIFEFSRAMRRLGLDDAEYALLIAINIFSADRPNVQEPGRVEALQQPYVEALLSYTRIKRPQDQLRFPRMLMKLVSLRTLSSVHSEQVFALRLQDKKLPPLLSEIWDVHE

[4] = inhibitors of control Renilla luciferase reporter, dose response, counter-screen for Shn3 3'UTR targeting project, Clone20-Shn3RL cells, dual-Glo, cherry-pick, set 2 (AID 720724); assay type: functional, cell-based; conditions: Dual-Go Shn3RL
[5] = reduction of Shn3 3'UTR firefly luciferase signal, dose response, Schnurri-3 inhibitor project, cell-based, Clone20 osteoblasts, cherry-pick, set 2 (AID 720490); assay type: functional;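 note: actives lower the luminescence signal as inhibitors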
[6] = Shn3 3'UTR reporter inhibitors, dose response, cell-based, Clone20 osteoblasts, firefly luciferase, cherry-picked (AID 624132); assay type: functional;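 note: firefly luciferase luminescence from reporter carrying the Shn3 3'UTR in osteoblasts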
[7] = HepG2 cell cytotoxicity, dose response, cytotoxicity control for Shn3 inhibitor project, CellTiter-Glo, cherry-picked (AID 624134); assay type: functional, cell-based
[8] = control 3'UTR Renilla luciferase suppression, dose response, counter-screen for Shn3 inhibitor project, cell-based, Clone20-Shn3RL, cherry-picked (AID 624133); assay type: functional
Interleukin-8 = Interleukin-8 (Homo sapiens, UniProt P10145); assay: Dose Response confirmation of uHTS small molecule hits for cystic fibrosis induced NFkb Inhibitors in a PAF-induced IL8 counterscreen.; assay type: functional; conditions: read-out: IC50_Mean
Chain of Interleukin-8 (P10145 whole entry): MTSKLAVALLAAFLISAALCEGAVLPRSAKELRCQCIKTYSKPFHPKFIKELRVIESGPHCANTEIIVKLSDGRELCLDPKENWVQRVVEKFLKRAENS

Kallikrein-7 = Kallikrein-7 (Homo sapiens, UniProt P49862); assay: Fluorescence Intensity-based biochemical primary high throughput dose response assay to identify activators of kallikrein-7 (K7) zymogen.
Chain of Kallikrein-7 (P49862 whole entry): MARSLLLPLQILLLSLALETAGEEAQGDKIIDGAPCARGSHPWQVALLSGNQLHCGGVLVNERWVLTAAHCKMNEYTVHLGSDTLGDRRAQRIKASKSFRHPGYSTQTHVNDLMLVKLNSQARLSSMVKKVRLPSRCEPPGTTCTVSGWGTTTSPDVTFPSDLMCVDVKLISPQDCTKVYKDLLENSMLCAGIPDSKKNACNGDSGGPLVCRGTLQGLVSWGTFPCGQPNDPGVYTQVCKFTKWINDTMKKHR

[9] = molecular target: T1, Oxysterols receptor LXR-beta; assay type: functional, cell-based; remark: listed apart in the source
[10] = molecular target: DNA repair and recombination protein RAD54-like (Homo sapiens, UniProt Q92698); assay: inhibitors of human RAD54 branch migration, confirmation, biochemical, fluorescence, cherry-picked samples, dose series (AID 651657); assay type: functional
Chain of DNA repair and recombination protein RAD54-like (Q92698 whole entry, the tested form may be a part): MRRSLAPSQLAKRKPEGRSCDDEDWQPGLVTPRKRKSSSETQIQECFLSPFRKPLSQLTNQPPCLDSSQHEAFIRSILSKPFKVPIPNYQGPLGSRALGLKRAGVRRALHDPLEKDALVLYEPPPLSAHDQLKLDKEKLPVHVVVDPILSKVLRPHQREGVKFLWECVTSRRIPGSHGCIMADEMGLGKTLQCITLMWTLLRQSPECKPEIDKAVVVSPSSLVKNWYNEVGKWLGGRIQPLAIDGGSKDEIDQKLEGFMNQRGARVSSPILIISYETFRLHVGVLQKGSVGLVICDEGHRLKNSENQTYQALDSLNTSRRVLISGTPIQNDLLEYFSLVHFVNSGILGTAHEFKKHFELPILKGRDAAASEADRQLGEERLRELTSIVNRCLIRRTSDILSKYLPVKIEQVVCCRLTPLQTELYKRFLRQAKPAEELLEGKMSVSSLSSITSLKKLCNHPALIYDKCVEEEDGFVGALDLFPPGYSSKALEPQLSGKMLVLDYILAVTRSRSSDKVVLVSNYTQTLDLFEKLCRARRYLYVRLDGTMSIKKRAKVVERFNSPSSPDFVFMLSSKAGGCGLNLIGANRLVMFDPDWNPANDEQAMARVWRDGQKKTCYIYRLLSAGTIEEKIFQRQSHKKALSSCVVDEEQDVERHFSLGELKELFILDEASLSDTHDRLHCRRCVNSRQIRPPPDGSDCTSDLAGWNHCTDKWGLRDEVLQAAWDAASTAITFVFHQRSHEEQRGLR

[11] = inhibitors of clade B AD8 Env fusion, dose response, cell-based, cherry-pick (AID 652062); assay type: functional;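 note: luciferase signal from cell-cell fusion driven by HIV-1 clade B AD8 Env; potency is for inhibitors of fusion seen as a drop in luminescence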
[12] = inhibitors of firefly luciferase expression or activity, dose response, H4 neuroglioma cells, luminescence (AID 1990); assay type: functional, cell-based
[13] = inhibitors of SNCA 5'UTR-driven reporter translation, confirmation, H4 neuroglioma cells, luminescence (AID 1988); assay type: functional, cell-based
HEK293 = assay: inhibitors of LMP1-driven NF-kB reporter, dose response, cell-based, HEK293, luciferase, cherry-pick (AID 588343); assay type: functional; conditions: Homo sapiens
Cysteine protease ATG4B = molecular target: T2, Cysteine protease ATG4B (Homo sapiens, UniProt Q9Y4P1); assay type: functional;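 note: Fluorescence-based dose-response confirmation assay measuring inhibition of ATG4B activity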
T2 sequence (Q9Y4P1 whole entry): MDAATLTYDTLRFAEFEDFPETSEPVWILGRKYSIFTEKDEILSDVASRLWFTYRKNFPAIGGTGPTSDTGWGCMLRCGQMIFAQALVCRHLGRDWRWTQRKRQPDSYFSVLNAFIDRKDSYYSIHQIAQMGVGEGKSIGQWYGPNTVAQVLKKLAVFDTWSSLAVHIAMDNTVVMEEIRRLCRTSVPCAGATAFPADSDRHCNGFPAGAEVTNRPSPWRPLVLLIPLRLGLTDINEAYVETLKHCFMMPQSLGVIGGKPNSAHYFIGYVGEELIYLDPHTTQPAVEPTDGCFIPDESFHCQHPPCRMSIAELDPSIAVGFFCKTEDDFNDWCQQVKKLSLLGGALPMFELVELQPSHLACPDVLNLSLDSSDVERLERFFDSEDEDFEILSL

[14] = inhibitors of HIV Env-driven cell fusion, dose response, cherry-pick (AID 652057); assay type: functional, cell-based
Phospholipase A2 = Phospholipase A2 (Homo sapiens, UniProt P04054); assay type: functional;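 note: confirmatory dose-response counterscreen on phospholipase A2, testing hits that came from an ultra-high-throughput screen for ATG4B inhibitors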
Chain of Phospholipase A2 (P04054 whole entry, the tested form may be a part): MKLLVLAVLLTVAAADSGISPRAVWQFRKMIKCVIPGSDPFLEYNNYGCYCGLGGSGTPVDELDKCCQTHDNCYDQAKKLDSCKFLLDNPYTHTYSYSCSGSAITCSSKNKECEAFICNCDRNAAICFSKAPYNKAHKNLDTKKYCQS

[15] = ZM109 Env clade C HIV-1 fusion inhibitors, dose response, HeLa effector, CEM target cells, luciferase, cherry-pick (AID 652058); assay type: functional, cell-based
[16] = off-target signal loss in HeLa-CEM21 co-culture – HeLa F-luc CTL cells, cherry-picked, counter-screen for HIV-1 Env fusion inhibitor project, dose response (AID 652040); assay type: functional, cell-based;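 note: potency for signal decrease marking cytotoxic or nonspecific inhibition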
[17] = Luminescence Cell-Based Dose Response HTS to Identify Inhibitors of 5'UTR Stem-Loop Driven Prion Protein mRNA Translation in H4 Neuroglioblastoma Cells. [Related pubchem assays: 1827 (Project Summary), 1813 (Primary HTS)]; assay type: functional

Chain of Beta Lactamase (Q932Y6 whole entry, the tested form may be a part): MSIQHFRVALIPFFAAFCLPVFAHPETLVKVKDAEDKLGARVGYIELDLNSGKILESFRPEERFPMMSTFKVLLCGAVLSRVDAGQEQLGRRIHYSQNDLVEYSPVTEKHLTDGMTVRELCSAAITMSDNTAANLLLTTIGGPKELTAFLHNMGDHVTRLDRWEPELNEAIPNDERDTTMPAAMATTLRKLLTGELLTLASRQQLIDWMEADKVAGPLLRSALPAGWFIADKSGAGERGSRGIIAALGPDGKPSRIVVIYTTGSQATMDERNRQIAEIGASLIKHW

O=C1N/C(=C/c2ccc(N3CCOCC3)o2)C(=O)N1c1cccc(Cl)c1
IC50 (Beta Lactamase): 21.3 µM (inactive) | IC50 [1]: 7.65 µM (active)

O=C(/C=C/c1cc(Br)ccc1F)N1CCN(S(=O)(=O)c2ccc(Br)cc2)CC1
IC50 [2]: 0.743 µM (active)

Cc1ccc(Nc2ncccc2C(N)=O)cc1[N+](=O)[O-]
EC50 [3]: > 67.6 µM (inactive)

CC(C)c1nc(SCC(=O)Nc2cccc(C(F)(F)F)c2)c2c(=O)n(C)c(=O)n(C)c2n1
AC50 [4]: 3.53 µM (active) | AC50 [5]: 2.54 µM (active) | AC50 [6]: 2.7 µM (active) | AC50 [7]: > 70 µM (inactive) | AC50 [8]: 13.2 µM (active)

COc1cccc2c(SCC(=O)N/N=C/c3ccccc3)cc(C)nc12
IC50 (Interleukin-8): 11.3 µM (inactive)

CCOC(=O)c1cnn2c(C(F)(F)F)cc(-c3cn(C)nc3C)nc12
EC50 (Kallikrein-7): 33.2 µM (inactive)

O=[N+]([O-])c1cccc(/N=C/C=C(\O)c2cccs2)c1
EC50 (cells): > 67.5 µM (inactive) | EC50 [9]: > 67.5 µM (inactive)

CCOC(=O)c1cnc2c(C)c(Cl)ccc2c1NCCCN1CCOCC1
AC50 [10]: 8.62 µM (active)

O=C(/C=C/c1ccc(Cl)c(Cl)c1)N1CCN(Cc2ccc(Cl)cc2)CC1
IC50 [2]: 0.0143 µM (active)

CSc1ccc(C2NN=C(c3ccccc3)S2)cc1 (centres undefined)
EC50 (cells): > 67.6 µM (inactive) | EC50 [9]: > 67.6 µM (inactive)

COCCN1Cc2cc(O)n3c(nc4ccccc43)c2C1=N
EC50 (Kallikrein-7): > 69.5 µM (inactive)

NC(=O)c1sc2nc3c(c(-c4ccccc4)c2c1N)CCC3
AC50 [11]: 1.55 µM (active) | EC50 [12]: 25.6 µM (active) | EC50 [13]: 16.6 µM (active) | AC50 (HEK293): 14.6 µM (active) | IC50 (Interleukin-8): 15.3 µM (inactive) | IC50 (Cysteine protease ATG4B): 12.3 µM (active) | AC50 [14]: 1.87 µM (active) | IC50 (Phospholipase A2): 8.38 µM (active) | AC50 [15]: 0.736 µM (active) | AC50 [16]: 10.2 µM (active) | EC50 [17]: 6.39 µM (active)
